The subject of data set [1] is COX-1. On the set-up: method as in PMID 21900596. The settings on record: 14C-based COX assay, previously reported by Uddin et al. ref 21; cited from earlier work.
For data set [2], the system named is COX-2. On the set-up: method as in PMID 21900596. To be noted: cited from earlier work.
In data set [3] the target is T1, recombinant human COX-2 (Homo sapiens, UniProt P35354).
T1 construct: purchased Cayman Chemical, Ann Arbor, MI 700100
T1 sequence (P35354 18-604): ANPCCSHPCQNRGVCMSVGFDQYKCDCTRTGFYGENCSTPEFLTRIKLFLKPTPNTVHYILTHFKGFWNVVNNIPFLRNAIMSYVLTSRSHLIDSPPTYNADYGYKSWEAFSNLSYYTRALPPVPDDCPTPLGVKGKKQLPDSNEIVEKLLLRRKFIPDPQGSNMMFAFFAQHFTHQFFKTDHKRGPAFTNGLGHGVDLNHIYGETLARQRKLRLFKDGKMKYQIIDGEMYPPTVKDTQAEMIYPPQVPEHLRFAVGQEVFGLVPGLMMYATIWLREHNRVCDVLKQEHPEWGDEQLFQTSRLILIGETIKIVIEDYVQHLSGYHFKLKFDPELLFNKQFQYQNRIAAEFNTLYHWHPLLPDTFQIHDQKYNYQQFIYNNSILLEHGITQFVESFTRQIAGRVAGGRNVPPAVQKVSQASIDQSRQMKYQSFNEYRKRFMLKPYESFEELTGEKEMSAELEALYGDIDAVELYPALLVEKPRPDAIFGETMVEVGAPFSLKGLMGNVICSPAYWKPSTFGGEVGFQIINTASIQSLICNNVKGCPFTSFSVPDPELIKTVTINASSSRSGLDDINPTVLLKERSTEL
The data set can be described thus: COX Fluorescent Inhibitor Screening Assay Kit, COX-2. The class given is biochemical.

For data set [4], the target named is T2, purified ovine COX-1 (Ovis aries, UniProt P05979).
T2 sequence (P05979 25-600): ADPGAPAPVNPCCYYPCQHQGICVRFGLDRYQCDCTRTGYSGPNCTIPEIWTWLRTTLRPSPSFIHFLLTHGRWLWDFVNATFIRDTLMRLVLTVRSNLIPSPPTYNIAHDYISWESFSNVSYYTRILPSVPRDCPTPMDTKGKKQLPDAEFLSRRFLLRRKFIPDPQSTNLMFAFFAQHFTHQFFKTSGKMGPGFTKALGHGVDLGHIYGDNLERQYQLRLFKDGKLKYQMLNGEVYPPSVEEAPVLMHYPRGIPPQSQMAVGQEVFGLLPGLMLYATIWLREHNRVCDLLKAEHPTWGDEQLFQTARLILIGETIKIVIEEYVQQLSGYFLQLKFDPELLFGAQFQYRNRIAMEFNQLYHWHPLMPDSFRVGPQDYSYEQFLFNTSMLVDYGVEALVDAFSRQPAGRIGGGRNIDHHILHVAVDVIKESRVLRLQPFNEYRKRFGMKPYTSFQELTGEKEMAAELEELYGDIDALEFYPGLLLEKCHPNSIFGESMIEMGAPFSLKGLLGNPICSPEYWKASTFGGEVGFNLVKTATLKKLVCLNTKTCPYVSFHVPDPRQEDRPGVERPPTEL
Description: COX Fluorescent Inhibitor Screening Assay Kit, COX-1.
Description: 7.4.1 COX inhibition assay
The COX inhibition potency against ovine COX-1 and human COX-2 was determined using the
fluorescence-based COX assay ’COX Fluorescent Inhibitor Screening Assay Kit‘ (catalog number
reported by us.7 In brief, as a measure of COX mediated conversion of arachidonic acid to PG H2 in the
presence of different inhibitor concentrations this assay utilizes the peroxidase component of COX and
analyzes the formation of fluorescent resorufin. All compounds were assayed in a concentration range
of 10 nM to 100 μM, and every inhibitor concentration was assayed in duplicate.
as internal control. IC50 values were estimated using a nonlinear logistic regression ﬁtting procedure
(sigmoidal dose−response model) with Prism Software.

The target of data set [5] is protein kinase B (PKB). More on the design: method as in PMID 16757698, PMID 14973075. The settings on record: ref 50 and 53; cited from earlier work.
The target in data set [6] is sarcoplasmic/ER Ca2+ ATPase (SERCA). On the set-up: method as in PMID 23875171, PMID 12076251. The settings on record: ref 49 and 55; cited from earlier work.
Data set [7] addresses 3-phosphoinositide-dependent kinase 1 (PDK1). The settings on record: cited from earlier work.
Data set [8] concerns the target phosphodiesterase-5 (PDE51A). More on the design: method as in PMID 17383621. To be noted: ref 54; cited from earlier work.
Data set [9] concerns CYP3A4. More on the design: method as in PMID 10681375, PMID 22336956. To be noted: ref 12,51; cited from earlier work.
In data set [10] the test system is hCA-XII. More on the design: method as in PMID 23875171, PMID 16290146. The settings on record: ref 49 and 56; cited from earlier work.
Data set [11] has as its system hCA-IX. On the set-up: method as in PMID 23875171, PMID 16290146. The settings on record: ref 49 and 56; cited from earlier work.
On the set-up of data set [12]: method as in PMID 30072617. To be noted: male baboon, 90 min p.i. ref 18; cited from earlier work.
Data set [13] is described as follows: Stability towards liver microsomes of mice. To be noted: oxidative conditions plus MgCl2 5 mM, alamethicin 50 μg/mL, UDPGA 5 mM.
Data set [14] is described as follows: log D7.4 by HPLC method. The class given is physicochemical. The settings on record: HPLC retention on ODP-50 4B column (Shodex Asahipak); pH 7.4, HPLC-based method.
Data set [15] in a line: Ex vivo biodistribution in healthy rats. To be noted: for Biodistribution BAT: brown adipose tissue; for Biodistribution WAT: white adipose tissue.
A short description of data set [16]: Metabolic stability in vivo: blood clearance, blood components, radiometabolites. On the set-up: species or system male Wistar rats. The settings on record: for half-life: male, Wistar, rat, arterial blood, iv, 70 MBq, i.v., arterial blood samples; for half-life / Intact compound in blood plasma: rats; for Intact compound in blood plasma: radio-HPLC.
Where [17] appears, read: i.v., 5 min p.i., n = 8, mean ± SD.
[18] abbreviates: i.v., 60 min p.i., n = 8, mean ± SD.

Read-outs that look alike come from different tables or passages of the source.

`Cc1ccc(-c2cc(CF)nn2-c2ccc(S(C)(=O)=O)cc2)cc1` [5a]: the IC50 in data set [1] was above 4 µM; in [2] (14C-based COX assay, previously reported by Uddin et al. ref 21) it was 0.6 µM; in data set [3] it was 0.51 µM; in data set [4] it was above 100 µM. Moreover, the Selectivity index is on record as above 7 in data set [2] (IC50 (COX-1)/IC50 (COX-2), from values previously reported by Uddin et al. ref 21) and above 196 in data set [3] (IC50 (COX-1)/IC50 (COX-2)).

`Cc1ccc(-c2cc(C(F)(F)F)nn2-c2ccc(S(N)(=O)=O)cc2)cc1` [Celecoxib]: the IC50 was 28 µM in [5]; 35 µM in data set [6]; 3.5 µM in [7] (ref 52); 48 µM in [7] (ref 53); 16 µM in data set [8]; 0.018 µM in [10]. For the same compound, the IC50 in data set [11] is 0.016 µM. Also, in [9], the “extent of metabolism to the hydroxyl form by CYP3A4” value is on record as below 25%.

As to `[11CH3]c1ccc(-c2cc(C(F)(F)F)nn2-c2ccc(S(N)(=O)=O)cc2)cc1` [[^11C]celecoxib], in data set [12], the “intact radiotracer in blood” value is given as 17%.

For the compound `Cc1ccc(-c2cc(CC[18F])nn2-c2ccc(S(C)(=O)=O)cc2)cc1` [[^18F]5b], in data set [13], the “glucuronidation in murine liver microsomes” value is “not observed”. The same compound came in with a chromatographic logD in [14] of 2.65. Moreover, the “liver-to-bladder ratio (hepatobiliary vs renal excretion)” value in data set [15] (60 min p.i.) is on record as 2.6. In [15] (setting [17]), the “Biodistribution BAT” value is given as 2.79 ± 0.85 SUV, the Biodistribution adrenals is recorded as 2.95 ± 0.73 SUV, the Biodistribution blood came to 0.32 ± 0.02 SUV and the Biodistribution brain came to 0.5 ± 0.1 SUV. In data set [15] (setting [17]), this compound registered a Biodistribution femur of 0.6 ± 0.05 SUV, a Biodistribution harderian gland of 2.37 ± 0.19 SUV, a Biodistribution heart of 0.86 ± 0.07 SUV and a Biodistribution intestine of 14.17 ± 1.43 %ID. In data set [15] (setting [17]), this compound registered a Biodistribution kidneys of 2 ± 0.42 SUV, a Biodistribution liver of 3.37 ± 0.63 SUV, a Biodistribution lung of 1.06 ± 0.06 SUV and a Biodistribution muscle of 0.63 ± 0.09 SUV. Also, in [15] (setting [17]), the Biodistribution pancreas amounted to 1.6 ± 0.16 SUV, the “Biodistribution skin & hair” value was 0.98 ± 0.09 SUV, the Biodistribution spleen turned out to be 0.84 ± 0.12 SUV and the Biodistribution stomach is on record as 1.35 ± 0.6 %ID. Further, in [15] (setting [17]), the Biodistribution testes stood at 0.47 ± 0.05 SUV, the Biodistribution thymus was 1.09 ± 0.23 SUV, the Biodistribution thyroid gland was determined as 1.01 ± 0.1 SUV and the “Biodistribution urine (calc.)” value is reported as 0.02 ± 1.08 %ID. Besides, the “Biodistribution WAT” value in data set [15] (setting [17]) is given as 1.73 ± 0.84 SUV. Also, in [15] (setting [18]), the “Biodistribution BAT” value is 1.12 ± 0.22 SUV, the Biodistribution adrenals was determined as 0.9 ± 0.13 SUV, the Biodistribution blood was 0.08 ± 0.02 SUV and the Biodistribution brain is reported as 0.09 ± 0.01 SUV. In [15] (setting [18]), the “Biodistribution femur (femur uptake, 18F-defluorination)” value was 1.0 ± 0.2 SUV; the Biodistribution harderian gland stood at 1.08 ± 0.18 SUV; the Biodistribution heart was determined as 0.18 ± 0.02 SUV; the Biodistribution intestine was 41.52 ± 3.98 %ID. In data set [15] (setting [18]), this compound returned a Biodistribution kidneys of 0.57 ± 0.14 SUV, a Biodistribution liver of 0.74 ± 0.14 SUV, a Biodistribution lung of 0.25 ± 0.04 SUV and a Biodistribution muscle of 0.23 ± 0.05 SUV. Besides, in data set [15] (setting [18]), the Biodistribution pancreas is recorded as 0.57 ± 0.14 SUV, the “Biodistribution skin & hair” value is reported as 0.32 ± 0.09 SUV, the Biodistribution spleen stood at 0.28 ± 0.08 SUV and the Biodistribution stomach was determined as 0.94 ± 0.58 %ID. Further, in data set [15] (setting [18]), the Biodistribution testes is 0.24 ± 0.06 SUV, the Biodistribution thymus was found to be 0.23 ± 0.04 SUV, the Biodistribution thyroid gland stood at 0.27 ± 0.06 SUV and the “Biodistribution urine (calc.)” value is 15.85 ± 2.16 %ID. Besides, the “Biodistribution WAT” value in data set [15] (setting [18]) stood at 1.81 ± 0.8 SUV. Also, the half-life in data set [16] (read-out: t1/2 distribution (blood clearance of intact compound)) was found to be 1 min. In data set [16] (read-out: t1/2 elimination (blood clearance of intact compound)), the half-life was 20.7 min. Further, in [16] (rat blood, 60 min p.i., + TCA), the “Radioactivity distribution in blood components: erythrocytes” value is 23%, the “Radioactivity distribution in blood components: plasma” value was 71% and the “Radioactivity distribution in blood components: plasma supernatant” value is 35%. Further, in data set [16] (rat blood, 60 min p.i., + TCA precipitation), the “Radioactivity distribution in blood components: plasma pellet (bound to plasma proteins)” value is 29%. Besides, in data set [16] (rat blood, 60 min p.i., - TCA), the “Radioactivity distribution in blood components: erythrocytes” value came to 21%, the “Radioactivity distribution in blood components: plasma” value came out at 67%, the “Radioactivity distribution in blood components: plasma pellet” value is 1% and the “Radioactivity distribution in blood components: plasma supernatant” value came to 72%. In data set [16] (20 min p.i.), the “Intact compound in blood plasma” value is 35%. In [16] (60 min p.i.), the “Intact compound in blood plasma” value was found to be 30%.

The values above are taken from paper PMC9057277 (RSC Advances, 2020).
